# Reference: patent US9772337B2, “Compositions and methods for functional gylcomics” (Emory University, priority 2010, dated 2017)
# Test system: anti-GD1a antibody
# Test: BBG GSL-AOAB shotgun microarray binding assay with anti-GD1a antibody
# Details: fractions printed at 10 μM on NHS-slides
substance,measurement,value
Neu5Acα2-3Galβ1-3GalNAcβ1-4(Neu5Acα2-3)Galβ1-4Glcβ1-R [GD1a-AOAB],binding of anti-GD1a antibody to BBG GSL-AOAB fractions,primarily bound
